This note sets out measurements from PMC11942905, “Identification of a Selective Inhibitor of Human NFS1, a Cysteine Desulfurase Involved in Fe-S Cluster Assembly, via Structure-Based Virtual Screening” (International Journal of Molecular Sciences, 2025).

One assay concerns the target T1, NFS1 E387A (Homo sapiens, UniProt Q9Y697, E387A).
T1 construct: His tag (N); made in house; host or cells: E. coli BL21(DE3)
Description: H2S-producing assay, NFS1 E387A mutant. It counts as biochemical. As for the experimental part:
To further validate the accuracy of the simulated results, the residues Cys158, Glu387, Lys157, and His156 were mutated to alanine using site-directed mutagenesis.
For the expression and purification of NFS1Δ1-55/ISD11 in E. coli, the plasmid pNFS1-ISD11 was transformed into BL21(DE3) cells. The cells were grown at 37 °C in 1 L cultures of LB medium containing chloramphenicol (50 μg/ml) until the optical density at 600 nm (OD600) reached 0.6–0.8. Protein expression was induced by adding 0.1 mM isopropyl β-D-1-thiogalactopyranoside (IPTG), followed by an additional 12 h of incubation at 25 °C. The cells were harvested by centrifugation at 8000 rpm for 10 min at 4 °C, then resuspended in lysis buffer containing 50 mM phosphate-buffered saline (PBS, pH 7.4), 500 mM NaCl, 100 mg/L lysozyme, 30 mM imidazole, and 1 mM phenylmethanesulfonyl fluoride (PMSF). The resuspended cells were incubated on ice for 1 h, followed by sonication using an Ultrasonic Cell Disruption System (Scientz, Ningbo, China). The supernatant was obtained by centrifugation at 12,000 rpm for 30 min at 4 °C and was loaded onto a HisTrap FF column (GE Healthcare, Chicago, MA, USA) pre-equilibrated with lysis buffer. […] The protein concentration was measured using a BCA protein assay reagent kit (TransGen Biotech, Beijing, China).

In assay [1] the test system is succinate dehydrogenase (SDH). Description: Succinate dehydrogenase activity in A549 cells. To be noted: 50 µM. It counts as cell-based, human. As for the experimental part:
The activity of succinate dehydrogenase (SDH) in cells was determined using an SDH activity assay kit (Solarbio, Beijing, China) according to the manufacturer’s instructions. The optical density at 600 nm (OD600) was measured using a multifunctional microplate reader in 96-well plates. One unit of SDH activity was defined as the amount of enzyme catalyzing the consumption of 1 nmol of 2,6-dichlorophenol indophenol per minute at 37 °C [43]. The activity of aconitase (ACO) was measured as previously described, with some modifications. The cells were washed three times with pre-cooled PBS and lysed with lysis buffer containing 50 mM of Tris-HCl (pH 8.0), 0.2% Triton X-100, 0.6 mM of MnCl2, 5 mM of citrate, and 1 mM of PMSF. The aconitase activity was measured by monitoring the formation of cis-aconitate from isocitrate at 240 nm in 50 mM of Tris-HCl (pH 8.0) containing 20 mM of DL-trisodium isocitrate at 37 °C. An extinction coefficient of 3600 M^−1 cm^−1 at 240 nm was used to calculate the cis-aconitate concentration. One unit of ACO activity was defined as the amount of enzyme catalyzing the generation of 1 nmol of cis-aconitate per minute at 37 °C.

Structures are written as SMILES.

T1 sequence (Q9Y697 56-457 E387A): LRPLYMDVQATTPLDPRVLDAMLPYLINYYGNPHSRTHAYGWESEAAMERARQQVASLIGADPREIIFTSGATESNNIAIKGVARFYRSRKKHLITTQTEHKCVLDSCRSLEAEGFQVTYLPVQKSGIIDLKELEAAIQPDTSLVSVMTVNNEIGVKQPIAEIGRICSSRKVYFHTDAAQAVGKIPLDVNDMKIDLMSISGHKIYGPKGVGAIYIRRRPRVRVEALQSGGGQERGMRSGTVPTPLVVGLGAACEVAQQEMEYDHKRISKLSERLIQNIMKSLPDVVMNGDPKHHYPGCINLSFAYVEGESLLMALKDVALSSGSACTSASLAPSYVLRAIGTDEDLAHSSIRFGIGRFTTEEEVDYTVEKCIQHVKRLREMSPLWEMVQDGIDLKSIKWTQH

With `COc1cc(/C=N/NC(=O)COc2ccc(Cl)cc2Cl)ccc1O` [Compound 53], the concentration for half-maximal inhibition (IC50) (usually the concentration that inhibits the measured activity by half) against NFS1 E387A came out at 105 ± 3.17 µM. In assay [1], the “SDH activity compared to the control group” value was found to be 81.8%.
